In patent publication US7030132B2, “Method of improving bioavailability of orally administered drugs, a method of screening for enhancers of such bioavailability and novel pharmaceutical compositions for oral delivery of drugs” (Cancer Research Ventures Limited, priority 1999, dated 2006):
pIC50: −log10 of the molar value.

test system: IGROV1 parental cells; test: Cytotoxicity, sulphorhodamine (SRB) assay, IGROV1 parental cells; assay type: cell-based, human; conditions: 2 μM GF120918, topoisomerase I drugs
Description: (§1) Cytotoxicity was Determined Using the Sulphorhodamine (SRB) Assay. Cells were plated in 96-wells plates, 1500 cells/well. Cells were cultured for 48 h at 37° C. and 5% CO2 in the absence of drugs. Then, in a serial dilution from approximately 1 μM to approximately 0.05 nM drugs were added, and cells were cultured for another 5 days at 37° C. and 5% CO2 Next cells are fixated in the plate, washed, and coloured with SRB. After 20 min unbound SRB is washed away using 0.1 M acetic acid. SRB that is bound to the cells is dissolved in 10 mM Tris-HCl buffer. Using a 96-well plate reader the absorbance at 540 nm is measured. For each drug the IC50 value was determined. Results are the mean of at least 3 experiments.

Compound	effect of GF120918 on the sensitivity of the parental cell line IGROV1
COc1cc2c(cc1OC)CN(CCc1ccc(NC(=O)c3cccc4c(=O)c5cccc(OC)c5[nH]c34)cc1)CC2 [GF120918]	no or very little effect

same assay, conditions: Homo sapiens, IGROV-1, 120 h; IGROV1 parental cells, without GF120918, 5 days drug exposure; read-out: IGROV1 IC50

Compound	pIC50
CC[C@@]1(O)C(=O)OCc2c1cc1n(c2=O)Cc2cc3c(CN(C)C)c(O)ccc3nc2-1 [topotecan]	8.05
CC[C@@]1(O)C(=O)OCc2c1cc1n(c2=O)Cc2c-1nc1ccccc1c2CC[Si](C)(C)C [BNP1350]	9.36
CCc1c2c(nc3ccc(OC(=O)N4CCC(N5CCCCC5)CC4)cc13)-c1cc3c(c(=O)n1C2)COC(=O)[C@]3(O)CC [CPT11, irinotecan]	6.26

same assay, conditions: IC50 without / with 2 μM GF120918, IGROV1

Compound	ratio −/+ GF120918 (IGROV1)
CC[C@@]1(O)C(=O)OCc2c1cc1n(c2=O)Cc2cc3c(CN(C)C)c(O)ccc3nc2-1 [topotecan]	0.97
CC[C@@]1(O)C(=O)OCc2c1cc1n(c2=O)Cc2c-1nc1cc3c(cc1c2CN1CCN(C)CC1)OCCO3 [GG211]	0.74
CC[C@@]1(O)C(=O)OCc2c1cc1n(c2=O)Cc2c-1nc1ccccc1c2CC[Si](C)(C)C [BNP1350]	0.53
CCc1c2c(nc3ccc(O)cc13)-c1cc3c(c(=O)n1C2)COC(=O)[C@]3(O)CC [SN-38]	1.66
CC[C@@]1(O)C(=O)OCc2c1cc1n(c2=O)Cc2c-1nc1cc(F)c(C)c3c1c2C(N)CC3.CS(=O)(=O)O (stereo partly shown) [DX8951f]	0.60
CCc1c2c(nc3ccc(OC(=O)N4CCC(N5CCCCC5)CC4)cc13)-c1cc3c(c(=O)n1C2)COC(=O)[C@]3(O)CC [CPT11, irinotecan]	0.84

same assay, conditions: IGROV1 parental cells, + 2 μM GF120918; read-out: IGROV1 + GF120918 IC50

Compound	pIC50
CC[C@@]1(O)C(=O)OCc2c1cc1n(c2=O)Cc2cc3c(CN(C)C)c(O)ccc3nc2-1 [topotecan]	8.03
CC[C@@]1(O)C(=O)OCc2c1cc1n(c2=O)Cc2c-1nc1cc3c(cc1c2CN1CCN(C)CC1)OCCO3 [GG211]	9.06
CC[C@@]1(O)C(=O)OCc2c1cc1n(c2=O)Cc2c-1nc1ccccc1c2CC[Si](C)(C)C [BNP1350]	9.08
CCc1c2c(nc3ccc(O)cc13)-c1cc3c(c(=O)n1C2)COC(=O)[C@]3(O)CC [SN-38]	8.96
CC[C@@]1(O)C(=O)OCc2c1cc1n(c2=O)Cc2c-1nc1cc(F)c(C)c3c1c2C(N)CC3.CS(=O)(=O)O (stereo partly shown) [DX8951f]	9.77
CCc1c2c(nc3ccc(OC(=O)N4CCC(N5CCCCC5)CC4)cc13)-c1cc3c(c(=O)n1C2)COC(=O)[C@]3(O)CC [CPT11, irinotecan]	6.19

same assay, conditions: IGROV1 parental cells, without GF120918, 5 days drug exposure; read-out: IGROV1 IC50

Compound	pIC50
CC[C@@]1(O)C(=O)OCc2c1cc1n(c2=O)Cc2c-1nc1cc3c(cc1c2CN1CCN(C)CC1)OCCO3 [GG211]	9.19
CCc1c2c(nc3ccc(O)cc13)-c1cc3c(c(=O)n1C2)COC(=O)[C@]3(O)CC [SN-38]	8.74
CC[C@@]1(O)C(=O)OCc2c1cc1n(c2=O)Cc2c-1nc1cc(F)c(C)c3c1c2C(N)CC3.CS(=O)(=O)O (stereo partly shown) [DX8951f]	10.00

test system: T8 resistant cells; test: Cytotoxicity, sulphorhodamine (SRB) assay, T8 resistant (BCRP overexpressing) cells; assay type: cell-based, human; conditions: + 2 μM GF120918
Description: as §1

Compound	Rf (resistance factor) T8 + GF120918
CC[C@@]1(O)C(=O)OCc2c1cc1n(c2=O)Cc2cc3c(CN(C)C)c(O)ccc3nc2-1 [topotecan]	4.3
CC[C@@]1(O)C(=O)OCc2c1cc1n(c2=O)Cc2c-1nc1cc3c(cc1c2CN1CCN(C)CC1)OCCO3 [GG211]	5.3
CC[C@@]1(O)C(=O)OCc2c1cc1n(c2=O)Cc2c-1nc1ccccc1c2CC[Si](C)(C)C [BNP1350]	4.1
CCc1c2c(nc3ccc(O)cc13)-c1cc3c(c(=O)n1C2)COC(=O)[C@]3(O)CC [SN-38]	6.0
CC[C@@]1(O)C(=O)OCc2c1cc1n(c2=O)Cc2c-1nc1cc(F)c(C)c3c1c2C(N)CC3.CS(=O)(=O)O (stereo partly shown) [DX8951f]	2.3
CCc1c2c(nc3ccc(OC(=O)N4CCC(N5CCCCC5)CC4)cc13)-c1cc3c(c(=O)n1C2)COC(=O)[C@]3(O)CC [CPT11, irinotecan]	4.7

same assay, conditions: Homo sapiens; T8 resistant cells, without GF120918; read-out: T8 IC50

Compound	pIC50
CC[C@@]1(O)C(=O)OCc2c1cc1n(c2=O)Cc2cc3c(CN(C)C)c(O)ccc3nc2-1 [topotecan]	6.01
CC[C@@]1(O)C(=O)OCc2c1cc1n(c2=O)Cc2c-1nc1ccccc1c2CC[Si](C)(C)C [BNP1350]	8.31
CCc1c2c(nc3ccc(OC(=O)N4CCC(N5CCCCC5)CC4)cc13)-c1cc3c(c(=O)n1C2)COC(=O)[C@]3(O)CC [CPT11, irinotecan]	4.47

same assay, conditions: IC50 without / with 2 μM GF120918, T8

Compound	ratio −/+ GF120918 (T8)
CC[C@@]1(O)C(=O)OCc2c1cc1n(c2=O)Cc2cc3c(CN(C)C)c(O)ccc3nc2-1 [topotecan]	24.4
CC[C@@]1(O)C(=O)OCc2c1cc1n(c2=O)Cc2c-1nc1cc3c(cc1c2CN1CCN(C)CC1)OCCO3 [GG211]	4.9
CC[C@@]1(O)C(=O)OCc2c1cc1n(c2=O)Cc2c-1nc1ccccc1c2CC[Si](C)(C)C [BNP1350]	1.4
CCc1c2c(nc3ccc(O)cc13)-c1cc3c(c(=O)n1C2)COC(=O)[C@]3(O)CC [SN-38]	64.1
CC[C@@]1(O)C(=O)OCc2c1cc1n(c2=O)Cc2c-1nc1cc(F)c(C)c3c1c2C(N)CC3.CS(=O)(=O)O (stereo partly shown) [DX8951f]	7.4
CCc1c2c(nc3ccc(OC(=O)N4CCC(N5CCCCC5)CC4)cc13)-c1cc3c(c(=O)n1C2)COC(=O)[C@]3(O)CC [CPT11, irinotecan]	11.2

same assay, conditions: T8 resistant cells, + 2 μM GF120918; read-out: T8 + GF120918 IC50

Compound	pIC50
CC[C@@]1(O)C(=O)OCc2c1cc1n(c2=O)Cc2cc3c(CN(C)C)c(O)ccc3nc2-1 [topotecan]	7.40
CC[C@@]1(O)C(=O)OCc2c1cc1n(c2=O)Cc2c-1nc1cc3c(cc1c2CN1CCN(C)CC1)OCCO3 [GG211]	8.34
CC[C@@]1(O)C(=O)OCc2c1cc1n(c2=O)Cc2c-1nc1ccccc1c2CC[Si](C)(C)C [BNP1350]	8.46
CCc1c2c(nc3ccc(O)cc13)-c1cc3c(c(=O)n1C2)COC(=O)[C@]3(O)CC [SN-38]	8.18
CC[C@@]1(O)C(=O)OCc2c1cc1n(c2=O)Cc2c-1nc1cc(F)c(C)c3c1c2C(N)CC3.CS(=O)(=O)O (stereo partly shown) [DX8951f]	9.41
CCc1c2c(nc3ccc(OC(=O)N4CCC(N5CCCCC5)CC4)cc13)-c1cc3c(c(=O)n1C2)COC(=O)[C@]3(O)CC [CPT11, irinotecan]	5.52

same assay, conditions: T8 resistant cells, without GF120918; read-out: T8 IC50

Compound	pIC50
CC[C@@]1(O)C(=O)OCc2c1cc1n(c2=O)Cc2c-1nc1cc3c(cc1c2CN1CCN(C)CC1)OCCO3 [GG211]	7.65
CCc1c2c(nc3ccc(O)cc13)-c1cc3c(c(=O)n1C2)COC(=O)[C@]3(O)CC [SN-38]	6.38
CC[C@@]1(O)C(=O)OCc2c1cc1n(c2=O)Cc2c-1nc1cc(F)c(C)c3c1c2C(N)CC3.CS(=O)(=O)O (stereo partly shown) [DX8951f]	8.54

same assay, conditions: addition of 2 μM GF120918

Compound	reversal of resistance of T8 for topoisomerase I drugs
COc1cc2c(cc1OC)CN(CCc1ccc(NC(=O)c3cccc4c(=O)c5cccc(OC)c5[nH]c34)cc1)CC2 [GF120918]	for the greater part reversed

same assay, conditions: without GF120918

Compound	Rf (resistance factor, IC50 T8 / IC50 IGROV1)
CC[C@@]1(O)C(=O)OCc2c1cc1n(c2=O)Cc2cc3c(CN(C)C)c(O)ccc3nc2-1 [topotecan]	110
CC[C@@]1(O)C(=O)OCc2c1cc1n(c2=O)Cc2c-1nc1cc3c(cc1c2CN1CCN(C)CC1)OCCO3 [GG211]	35
CC[C@@]1(O)C(=O)OCc2c1cc1n(c2=O)Cc2c-1nc1ccccc1c2CC[Si](C)(C)C [BNP1350]	11
CCc1c2c(nc3ccc(O)cc13)-c1cc3c(c(=O)n1C2)COC(=O)[C@]3(O)CC [SN-38]	231
CC[C@@]1(O)C(=O)OCc2c1cc1n(c2=O)Cc2c-1nc1cc(F)c(C)c3c1c2C(N)CC3.CS(=O)(=O)O (stereo partly shown) [DX8951f]	29
CCc1c2c(nc3ccc(OC(=O)N4CCC(N5CCCCC5)CC4)cc13)-c1cc3c(c(=O)n1C2)COC(=O)[C@]3(O)CC [CPT11, irinotecan]	62

test system: not listed separately; test: Effect of GF120918 on oral bioavailability of topotecan in mdr1a/1b (-/-) mice; assay type: in vivo; conditions: topotecan 1 mg/kg oral, GF120918 50 mg/kg oral 15 min prior, plasma
Source text: The tests with mice assessed the bioavailability of the drug in mdr1a/1b double knock out mice in the presence and the absence of a BCRP inhibitor. The bioavailability tests can also be carried out with either MRP and/or P-gp knock out mice thus enabling assessment of whether any effect found due to the presence of the bioinhibitor is due solely to BCRP, not due to P-gp and/or MRP. Thus it can be determined whether the particular drug transported is transported using one or more transport systems. The drug to be transported can be provided with a detectable marker to assess where it is located and to be able to quantitate it. Some drugs can be detected and quantitated in plasma without use of a detectable marker. The methodology employed is analogous to that disclosed in the Lancet article discussed above and is also described in Br. J. Cancer 1997, 76: 1181–1183. The methodology is thus considered to be incorporated by reference and is considered enabled to a person skilled in the art. […]
GF120918 was suspended in a hydroxypropylmethylcellulose (10 g/l): Tween 80 (2% v/v): H2O (0.5:1:98.5 v/v/v) formulation for oral administration, at 5 mg.ml^−1. […] Topotecan levels in plasma were determined by HPLC analysis as described by Rosing et al., 1995, J. Chromatography, 668: 107–115, and are depicted in FIG. 1.

increase in the area under the curve (AUC) of oral topotecan	Compound
approximately 6 fold	CC[C@@]1(O)C(=O)OCc2c1cc1n(c2=O)Cc2cc3c(CN(C)C)c(O)ccc3nc2-1 [topotecan]

test system: not listed separately; test: Clinical trial: oral topotecan with or without GF120918, plasma levels; assay type: in vivo; conditions: three patients, topotecan 1.0 mg/m2 oral, with or without oral GF120918 (1000 mg)
Description: In this example the first results of a clinical trial are shown. Three patients received topotecan orally at a dosis of 1.0 mg.m^−2. Topotecan was administered with or without GF120918 (1000 mg). For illustrative purposes, the plasma concentration vs. time is shown for one patient in FIG. 2. In FIG. 3 the average including the standard deviation is shown for all three patients.

systemic exposure (AUC) to oral topotecan	Compound
increased systemic exposure	CC[C@@]1(O)C(=O)OCc2c1cc1n(c2=O)Cc2cc3c(CN(C)C)c(O)ccc3nc2-1 [topotecan]
